Experimental data published in patent US8906925B2, “Pyrido[4,3-B]indoles containing rigid moieties” (Medivation Technologies, Inc., priority 2008, dated 2014).
Like-named read-outs stand apart in the source and are kept apart here.

Experiments:
[1] = molecular target: T1, human recombinant adrenergic α2A receptor (Homo sapiens, UniProt P08913); test: Adrenergic α2A radioligand binding ([3H]MK-912); conditions: compound at 1 μM
T1 construct: expressed in transfected cells; host or cells: insect Sf9 cells
T1 sequence (P08913 1-465): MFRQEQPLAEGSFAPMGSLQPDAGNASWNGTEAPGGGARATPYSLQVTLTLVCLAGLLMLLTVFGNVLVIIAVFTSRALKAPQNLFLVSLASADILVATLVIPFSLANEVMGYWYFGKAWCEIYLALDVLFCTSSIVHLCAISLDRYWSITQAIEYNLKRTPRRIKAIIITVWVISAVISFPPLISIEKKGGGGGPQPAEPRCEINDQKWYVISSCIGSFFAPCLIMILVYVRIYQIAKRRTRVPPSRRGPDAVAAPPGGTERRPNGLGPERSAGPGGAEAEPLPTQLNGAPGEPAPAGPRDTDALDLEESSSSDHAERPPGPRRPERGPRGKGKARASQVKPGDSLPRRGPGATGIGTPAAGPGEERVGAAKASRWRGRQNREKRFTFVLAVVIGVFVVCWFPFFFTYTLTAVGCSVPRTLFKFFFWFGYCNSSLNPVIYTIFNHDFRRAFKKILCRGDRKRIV
In short: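 Sf9-expressed human receptor in 50 mM Tris-HCl pH 7.4, 12.5 mM MgCl2, 2 mM EDTA; compounds at 1 μM or lower (1% DMSO) incubated with 1 nM [3H]MK-912 for 60 min at 25° C. Non-specific binding defined with 10 μM WB-4101; filtered bound radioactivity counted, reported as percent inhibition of specific binding.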

[2] = molecular target: T2, human recombinant adrenergic α2B receptor (Homo sapiens, UniProt P18089); test: Adrenergic α2B radioligand binding ([3H]Rauwolscine); conditions: compound at 1 μM
T2 construct: expressed in transfected cells; host or cells: Chinese hamster ovary (CHO-K1) cells
T2 sequence (P18089 1-450): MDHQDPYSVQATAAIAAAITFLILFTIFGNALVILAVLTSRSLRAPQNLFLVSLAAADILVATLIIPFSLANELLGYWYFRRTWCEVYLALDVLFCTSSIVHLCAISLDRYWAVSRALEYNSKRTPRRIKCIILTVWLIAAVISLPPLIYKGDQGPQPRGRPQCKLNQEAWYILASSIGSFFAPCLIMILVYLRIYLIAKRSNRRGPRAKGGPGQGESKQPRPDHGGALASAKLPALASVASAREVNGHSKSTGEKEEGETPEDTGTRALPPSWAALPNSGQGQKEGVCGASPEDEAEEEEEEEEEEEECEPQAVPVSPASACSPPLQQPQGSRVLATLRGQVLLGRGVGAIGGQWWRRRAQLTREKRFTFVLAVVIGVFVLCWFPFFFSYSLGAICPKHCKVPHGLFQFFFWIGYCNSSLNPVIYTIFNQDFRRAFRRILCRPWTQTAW
In short: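 Membranes from CHO-K1 cells expressing the receptor were incubated with 2.5 nM [3H]Rauwolscine for 60 min at 25 °C in Tris-HCl buffer pH 7.4 with MgCl2, EDTA and BSA. Non-specific binding was defined with 10 μM prazosin. Compounds were tested at ≤1 μM in 1% DMSO and read out as % inhibition of specific binding after filtration.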

[3] = molecular target: human dopamine D2L receptor (Homo sapiens, UniProt P14416); test: Dopamine D2L radioligand binding ([3H]Spiperone); conditions: compound at 1 μM
Sequence of human dopamine D2L receptor (P14416 whole entry): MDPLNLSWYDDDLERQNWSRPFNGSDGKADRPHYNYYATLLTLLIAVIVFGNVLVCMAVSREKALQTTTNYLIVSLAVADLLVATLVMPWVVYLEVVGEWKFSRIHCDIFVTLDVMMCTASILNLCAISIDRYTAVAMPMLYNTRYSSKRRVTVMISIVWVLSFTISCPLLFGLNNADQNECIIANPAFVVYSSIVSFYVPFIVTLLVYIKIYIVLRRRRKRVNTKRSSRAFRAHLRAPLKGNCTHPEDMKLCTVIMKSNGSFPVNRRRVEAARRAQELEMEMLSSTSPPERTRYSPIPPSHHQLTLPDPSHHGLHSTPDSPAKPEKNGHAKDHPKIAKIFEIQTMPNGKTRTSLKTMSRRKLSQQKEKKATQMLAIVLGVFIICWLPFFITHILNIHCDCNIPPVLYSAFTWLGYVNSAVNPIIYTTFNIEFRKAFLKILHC
From the text: Non-specific binding was estimated in the presence of […] Haloperidol. Receptor proteins were filtered and washed, the filters were then counted to determine [^3H]Spiperone specifically bound. […] Biochemical assay results are presented as the percent inhibition of specific binding in Table 9.

[4] = molecular target: T3, human recombinant serotonin (5-Hydroxytryptamine) 5-HT2A receptor (Homo sapiens, UniProt P28223); test: Serotonin 5-HT2A radioligand binding ([3H]Ketanserin); conditions: for inhibition at 1 µM: read-out: Inhibition of ligand binding, Serotonin 5-HT2A (percent inhibition of specific binding), compound at 1 μM; for inhibition at 0.1 µM: read-out: Inhibition of ligand binding, Serotonin 5-HT2A (percent inhibition of specific binding), compound at 0.1 μM
T3 construct: expressed in transfected cells; host or cells: Chinese hamster ovary (CHO-K1) cells
T3 sequence (P28223 whole entry): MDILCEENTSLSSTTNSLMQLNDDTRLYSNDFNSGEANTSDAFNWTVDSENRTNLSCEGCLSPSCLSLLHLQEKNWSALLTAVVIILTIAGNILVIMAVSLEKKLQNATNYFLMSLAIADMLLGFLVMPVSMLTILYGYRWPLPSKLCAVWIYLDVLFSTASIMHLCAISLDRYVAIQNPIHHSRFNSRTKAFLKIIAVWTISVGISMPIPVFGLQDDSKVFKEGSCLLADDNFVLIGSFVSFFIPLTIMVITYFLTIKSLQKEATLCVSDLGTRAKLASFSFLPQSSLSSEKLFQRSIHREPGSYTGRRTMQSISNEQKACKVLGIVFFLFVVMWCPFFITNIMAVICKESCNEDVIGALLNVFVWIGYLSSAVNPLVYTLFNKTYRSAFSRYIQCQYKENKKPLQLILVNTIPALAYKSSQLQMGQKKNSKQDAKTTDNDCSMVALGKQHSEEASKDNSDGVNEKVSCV
Experimental: Compounds of the invention were incubated with 0.5 nM [^3H]Ketanserin for 60 min. at 25° C. Non-specific binding was estimated in the presence of 1 μM Mianserin. Receptor proteins were filtered and washed, the filters were then counted to determine [^3H]Ketanserin specifically bound.

[5] = molecular target: T4, human recombinant serotonin (5-Hydroxytryptamine) 5-HT6 receptor (Homo sapiens, UniProt P50406); test: Serotonin 5-HT6 radioligand binding ([3H]LSD); conditions: read-out: Inhibition of ligand binding, Serotonin 5-HT6 (percent inhibition of specific binding); for inhibition at 1 µM: compound at 1 μM; for inhibition at 0.1 µM: compound at 0.1 μM
T4 construct: expressed in transfected cells; host or cells: human HeLa cells
T4 sequence (P50406 whole entry): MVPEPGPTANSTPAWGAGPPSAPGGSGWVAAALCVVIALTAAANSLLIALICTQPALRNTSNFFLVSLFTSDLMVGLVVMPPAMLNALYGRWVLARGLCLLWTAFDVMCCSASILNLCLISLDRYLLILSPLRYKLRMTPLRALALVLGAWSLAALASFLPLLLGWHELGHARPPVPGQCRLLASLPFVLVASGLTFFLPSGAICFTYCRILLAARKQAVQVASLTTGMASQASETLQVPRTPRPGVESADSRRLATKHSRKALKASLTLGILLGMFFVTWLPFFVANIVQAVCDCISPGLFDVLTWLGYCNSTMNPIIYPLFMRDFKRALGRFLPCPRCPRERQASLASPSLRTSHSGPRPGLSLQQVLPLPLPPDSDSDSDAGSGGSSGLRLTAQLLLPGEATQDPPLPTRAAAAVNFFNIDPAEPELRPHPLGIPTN
Experimental: Compounds of the invention were incubated with 1.5 nM [3H]Lysergic acid diethylamide (LSD) for 120 min. at 37° C. […] Receptor proteins were filtered and washed, the filters were then counted to determine [3H]LSD specifically bound. Compounds were screened at 1 μM or lower, using 1% DMSO as vehicle. Biochemical assay results are presented as the percent inhibition of specific binding in Table 10.

[6] = molecular target: human recombinant serotonin (5-Hydroxytryptamine) 5-HT7 receptor (Homo sapiens, UniProt P34969); test: Serotonin 5-HT7 radioligand binding ([3H]LSD); conditions: read-out: Inhibition of ligand binding, Serotonin 5-HT7 (percent inhibition of specific binding); for inhibition at 1 µM: compound at 1 μM
Sequence of human recombinant serotonin (5-Hydroxytryptamine) 5-HT7 receptor (P34969 whole entry): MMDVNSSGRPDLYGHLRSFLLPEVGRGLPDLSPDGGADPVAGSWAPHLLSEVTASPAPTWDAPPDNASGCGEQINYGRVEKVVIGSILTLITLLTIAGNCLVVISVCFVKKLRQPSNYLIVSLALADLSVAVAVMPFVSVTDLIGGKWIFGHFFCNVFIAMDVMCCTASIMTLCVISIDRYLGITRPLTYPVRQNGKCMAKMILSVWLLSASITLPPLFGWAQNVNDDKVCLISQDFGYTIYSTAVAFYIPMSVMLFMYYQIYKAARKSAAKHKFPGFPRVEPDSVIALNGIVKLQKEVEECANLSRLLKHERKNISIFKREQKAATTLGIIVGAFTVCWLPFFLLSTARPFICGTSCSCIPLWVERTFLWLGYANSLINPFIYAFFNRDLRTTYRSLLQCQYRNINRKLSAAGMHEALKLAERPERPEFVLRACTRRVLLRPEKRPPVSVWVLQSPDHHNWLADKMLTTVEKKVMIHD
From the text: Receptor proteins were filtered and washed, the filters were then counted to determine [^3H]LSD specifically bound.

[7] = percent inhibition of specific binding, read-out: Inhibition of ligand binding, Adrenergic α2A
[8] = percent inhibition of specific binding, read-out: Inhibition of ligand binding, Adrenergic α2B
[9] = percent inhibition of specific binding, read-out: Inhibition of ligand binding, Dopamine D2L
[10] = percent inhibition of specific binding, 1 µM

SMILES: Cc1ccc2c(c1)c1c(n2CC(O)c2ccncc2)CCN(C)C1 (stereo not shown) [Compound 180, 2-(2,8-dimethyl-3,4-dihydro-1H-pyrido[4,3-b]indol-5(2H)-yl)-1-(pyridin-4-yl)ethanol]
- inhibition at 1 µM [1, 7]: 84%
- inhibition at 1 µM [2, 8]: 105%
- inhibition at 1 µM [3, 9]: 10%
- inhibition at 1 µM [4]: 86%
- inhibition at 1 µM [5]: 72%
- inhibition at 1 µM [6]: 77%

SMILES: Cc1ccc(C(O)Cn2c3c(c4cc(C)ccc42)CN(C)CC3)cc1 (racemic) [Compound 43, racemic-2-(1,2,3,4-tetrahydro-2,8-dimethylpyrido[4,3-b]indol-5-yl)-1-p-tolylethanol]
- inhibition at 1 µM [1, 7]: 98%
- Inhibition of ligand binding, Adrenergic α2B [2, 10]: 102%
- inhibition at 1 µM [2, 8]: 108%
- inhibition at 1 µM [3, 9]: 65%
- inhibition at 1 µM [4]: 100%
- inhibition at 0.1 µM [5]: 62%
- inhibition at 1 µM [5]: 95%
- inhibition at 1 µM [6]: 98%

SMILES: COc1ccc(C(C)(O)Cn2c3c(c4cc(C)ccc42)CN(C)CC3)cc1 (stereo not shown) [Compound 174, 1-(2,8-dimethyl-3,4-dihydro-1H-pyrido[4,3-b]indol-5(2H)-yl)-2-(4-methoxyphenyl)propan-2-ol]
- inhibition at 1 µM [1, 7]: 93%
- inhibition at 1 µM [2, 8]: 88%
- Inhibition of ligand binding, Dopamine D2L ([3]; percent inhibition of specific binding): 34/34%
- inhibition at 1 µM [3, 9]: 34%
- Inhibition of ligand binding, Serotonin 5-HT2A (percent inhibition of specific binding) ([4]; compound at 1 μM, 1 µM): 100%
- inhibition at 0.1 µM [4]: 96%
- inhibition at 1 µM [4]: 97%
- inhibition at 0.1 µM [5]: 40%
- inhibition at 1 µM [5]: 82%
- inhibition at 0.1 µM ([6]; compound at 0.1 μM): 68%
- inhibition at 1 µM [6]: 95%

SMILES: CN1CCc2c(c3cc(Cl)ccc3n2/C=C(/c2ccc(F)cc2)C2CC2)C1 [Compound 110, (E)-8-chloro-5-(2-cyclopropyl-2-(4-fluorophenyl)vinyl)-2,3,4,5-tetrahydro-2-methyl-1H-pyrido[4,3-b]indole]
- inhibition at 1 µM [1, 7]: 99%
- inhibition at 1 µM [2, 8]: 92%
- Inhibition of ligand binding, Dopamine D2L [3, 10]: 98%
- inhibition at 1 µM [3, 9]: 96%
- inhibition at 0.1 µM [4]: 102%
- inhibition at 1 µM [4]: 98%
- inhibition at 0.1 µM [5]: 102%
- inhibition at 1 µM [5]: 104%
- inhibition at 1 µM [6]: 92%

SMILES: Cc1ccc2c(c1)c1c(n2CC(O)c2ccc(F)cc2)CCN(C)C1 (stereo not shown) [Compound 172, 2-(2,8-dimethyl-3,4-dihydro-1H-pyrido[4,3-b]indol-5(2H)-yl)-1-(4-fluorophenyl)ethanol]
- inhibition at 1 µM [1, 7]: 98%
- inhibition at 1 µM [2, 8]: 104%
- inhibition at 1 µM [3, 9]: 36%
- inhibition at 1 µM [4]: 91%
- inhibition at 1 µM [5]: 93%
- inhibition at 1 µM [6]: 100%

SMILES: COC(=O)c1ccc2c(c1)c1c(n2C#Cc2ccc(F)cc2)CCN(C)C1 [Compound No. 479, methyl 5-((4-fluorophenyl)ethynyl)-2-methyl-2,3,4,5-tetrahydro-1H-pyrido[4,3-b]indole-8-carboxylate]
- inhibition at 1 µM ([1]; read-out: Inhibition of ligand binding, Adrenergic α2A (percent inhibition of specific binding)): 83%
- inhibition at 1 µM ([2]; […] [3H]Rauwolscine, read-out: Inhibition of ligand binding, Adrenergic α2B (percent inhibition of specific binding)): 37%
- inhibition at 1 µM ([3]; […] [3H]Spiperone, read-out: Inhibition of ligand binding, Dopamine D2L (percent inhibition of specific binding)): 72%
- inhibition at 1 µM [4]: 78%
- inhibition at 1 µM [5]: 91%
- inhibition at 1 µM [6]: 17%
